Source: patent publication US11478469B2, “Combination product of BCL-2 inhibitor and MDM2 inhibitor and use thereof in the prevention and/or treatment of diseases” (ASCENTAGE PHARMA (SUZHOU) CO., LTD., priority 2018, dated 2022)
pIC50: −log10 of the molar value.

What was measured:
[1] = system: MV-4-11 (acute myeloid leukemia (AML)); test: CellTiter-Glo (CTG) cell proliferation assay, MV-4-11; assay type: cell-based; conditions: Homo sapiens, MV4-11; MV-4-11, single agent alone, 24 hours; read-out: IC50 for inhibition of proliferation
Procedure: Anti-proliferative effects were tested by CellTiter-Glo® (CTG) assay. Cells were seeded in 96-well plates and treated with different concentrations of test substance for 24 hours. […] Each test dose was tested with 3 replicate wells. Usually, 9 series of doses of the test substance were selected, and added to 96-well plates, 5 μl/well. For the combination experiment, the final volume of the two test substances was 5 μl/well. Each test dose was tested with 3 replicate wells. On the same plate, 3-6 wells were selected and added with 100 μl of dilution solution as a control group, and another 3-6 wells were used as a blank control. […] After mixing on a shaker for 2 minutes, leaving at room temperature for 10 minutes, the fluorescence value was read by using a Biotek synergy HIMF plate reader. […] For the combination test, the cell viability was calculated by normalizing the average OD value of 3 duplicate wells of the single drug control. […] Cell viability (%) values of Compound 6 alone and the combination of Compound 6 and APG-115 in the following malignant tumor cells were determined in the CTG experiment: OCI-AML-3 (acute myeloid leukemia (AML)), MV-4-11 (acute myeloid leukemia (AML)), KMS-26 (multiple myeloma (MM)), KMS-11 (multiple myeloma (MM)).

[2] = system: human RS4;11 (ALL) mouse xenograft tumor; test: Human RS4;11 ALL mouse xenograft tumor model; assay type: in vivo; conditions: for antitumor effect in words: 21 days of administration, Compound 6 50 mg/kg qd alone (12.5 or 50 mg/kg in combination), APG-115 50 mg/kg q2d; for CR (tumor complete regression), mice per group, day 21 after administration / PR (tumor partial regression), mice per group, day 21 after administration / RTV on day 21 after administration (mean ± standard error) / T/C (%) on day 21 after administration / Tumor remission rate % on day 21 after administration: Compound 6 50 mg/kg qd and/or APG-115 50 mg/kg q2d; for Tumor remission rate % on day 21 after administration: remission including CR, PR, and SD
Source text: (§1) A subcutaneous xenograft tumor model of human tumor immunodeficient mice was established by cell inoculation (see: Gould S E et al. Translational value of mouse models in oncology drug development. Nature medicine. 2015 21, 431-439; and, Souers A J et al. ABT-199, a potent and selective BCL-2 inhibitor, achieves antitumor activity while sparing platelets. Nature medicine. 2012 19.202-208): tumor cells in logarithmic growth phase were collected, counted and resuspended in 1×PBS, and the cell suspension concentration was adjusted to 2.5-5×10^7/mL. Using a 1 mL syringe ([…]), the tumor cells were inoculated subcutaneously in the right side of immunodeficient mice, 5-10×106/0.2 mL/mouse (experimental animals were purchased from Beijing Vital River Laboratory Animal Technology Co., Ltd. SCXK (Beijing) 2016-0006). All animal experiments were strictly in accordance with the laboratory animal use and management practices of GenePharma Co., Ltd. and Ascentage Pharma Group Co., Ltd. The calculation of relevant parameters referred to the Chinese CFDA “Guidelines for Non-Clinical Research Techniques of Cytotoxic Antitumor Drugs”.
(§2) Animal body weight and tumor size were measured twice a week during the experiment. The conditions and death of the animals were observed every day. Routine monitoring included the effects of tumor growth and treatment on normal animal behaviors, including activity, feeding and drinking situations, weight gain or loss, eyes, coat and other abnormalities in the experimental animals. The deaths and clinical symptoms observed during the experiment were recorded in the raw data. The entire operations of administration, measurement of mouse body weight and tumor volume were performed in a clean bench. Plasma and tumor tissues were collected, weighed and photographed after the end of the last administration according to the experimental protocol. Plasma and tumor samples were frozen and stored at −80° C.
(§3) Tumor volume (TV) was calculated as: TV=a×b2/2, in which a and b represented the length and width of the tumor as measured, respectively. The relative tumor volume (RTV) was calculated as: RTV=Vt/V1, in which V1 was the tumor volume at the time of grouping and administration, and Vt was the tumor volume measured on a day after administration. The evaluation index of anti-tumor activity was the relative tumor proliferation rate T/C (%), which was calculated as: relative tumor proliferation rate T/C (%)=(TRTV/CRTV)×100%, in which TRTV was the RTV of the treatment group, CRTV was the RTV of the vehicle control group; tumor remission rate (%) was calculated as: (the number of SD (stable disease), PR (tumor partial regression) and CR (tumor complete regression) in the tumor-bearing mice after treatment)/the total number of mice in the group×100%. Change of body weight %=(measured body weight−body weight at the time of grouping)/body weight at the time of grouping×100%.
(§4) The synergistic analysis was performed by the following formula (Gould S E et al. Translational value of mouse models in oncology drug development. Nature medicine. 2015 21, 431-439): synergy factor=((A/C)×(B/C))/(AB/C); A=RTV value of the group administered with A only; B═RTV value of the group administered with B only; C=RTV value of the vehicle control group; AB=RTV value of the group administered with A and B in combination (Clarke R. Issues in experimental design and endpoint analysis in the study of experimental cytotoxic agents in vivo in breast cancer and other models [J]. Breast Cancer Research & Treatment, 1997, 46(2-3): 255-278).
(1) The experimental method was as described in Section (2) of Example 1. RS4;11 carried wild-type p53 and was an ideal model for evaluating the anti-tumor effect of MDM2 inhibitors. […]

[3] = system: human MV-4-11 AML xenograft; test: MV-4-11 AML xenograft in Balb/c nude mice; assay type: in vivo, mouse; conditions: for Response rate @D 22: mPD (progressive disease) / Best response rate: mPD (progressive disease): compound 6 100 mg/kg and/or APG-115 100 mg/kg, mice per group; for Response rate @D 22: mPD (progressive disease) / RTV @ D 22 / T/C (%) @ D 22: day 22; for RTV @ D 22 / T/C (%) @ D 22: compound 6 100 mg/kg p.o. qd×22 d and/or APG-115 100 mg/kg orally daily d1-7 and d16-22
Source text: as §1, §2, §3, §4
(1) The experimental method was as described in Section (2) of Example 1. Compound 6 is a selective BCL-2 inhibitor developed by the Ascentage Pharma Group. The agent is currently under clinical development for cancer therapy both in China and in the US. Enhanced anti-proliferation activity of APG-115 in combination with compound 6 has been observed in cell-based assay in AML cell lines in vitro. […]

Question: CCN1[C@@H](C(=O)NC23CCC(C(=O)O)(CC2)CC3)[C@H](c2cccc(Cl)c2F)[C@]2(C(=O)Nc3cc(Cl)ccc32)C12CCCCC2 [APG-115] was tested. Which pIC50 [1] did it give?
Answer: Its pIC50 is 5.71.

Question: What about the “antitumor effect in words” value [2] of the same compound?
Answer: Its value is “no tumor growth inhibition effect”.

Question: What about the “CR (tumor complete regression), mice per group, day 21 after administration” value [2] of the same compound?
Answer: Its value is 0/5.

Question: And the “PR (tumor partial regression), mice per group, day 21 after administration” value [2]?
Answer: Its value is 0/5.

Question: And the “RTV on day 21 after administration (mean ± standard error)” value [2]?
Answer: The value was 11.1 ± 0.9.

Question: And the “T/C (%) on day 21 after administration” value [2]?
Answer: The value was 106%.

Question: And the “Tumor remission rate % on day 21 after administration” value [2]?
Answer: Its value is 0%.

Question: And the “Response rate @D 22: mPD (progressive disease)” value [3]?
Answer: Its value is 6/6 mPD.

Question: And the “Best response rate: mPD (progressive disease)” value [3]?
Answer: Its value is 6/6 mPD.

Question: And the “RTV @ D 22” value [3]?
Answer: The value was 9.2 ± 2.3.

Question: And the “T/C (%) @ D 22” value [3]?
Answer: The value was 67.1%.

Question: Which results are given for O=C(NS(=O)(=O)c1ccc(NC[C@H]2COCCO2)c([N+](=O)[O-])c1)c1ccc(N2CCN(CC3=C(c4ccc(Cl)cc4)CC4(CCC4)CC3)CC2)cc1Oc1cnc2[nH]ccc2c1 [Compound 6, (S)-N-((4-(((1,4-dioxan-2-yl)methyl)amino)-3-nitrophe-nyl)sulfonyl)-2-((1H-pyrrolo[2,3-b]pyridin-5-yl)oxy)-4-(4-((6-(4-chlorophenyl)spiro[3.5]non-6-en-7-yl)meth-yl)piperazin-1-yl)benzamide]?
Answer: pIC50 [1]: 7.07; antitumor effect in words [2]: excellent antitumor effect; CR (tumor complete regression), mice per group, day 21 after administration [2]: 0/5; PR (tumor partial regression), mice per group, day 21 after administration [2]: 1/5; RTV on day 21 after administration (mean ± standard error) [2]: 1.8 ± 0.4; T/C (%) on day 21 after administration [2]: 17%; Tumor remission rate % on day 21 after administration [2]: 20%; Response rate @D 22: mPD (progressive disease) [3]: 6/6 mPD; Best response rate: mPD (progressive disease) [3]: 6/6 mPD; RTV @ D 22 [3]: 7.5 ± 0.9; T/C (%) @ D 22 [3]: 55.1%
